Test results reported in patent publication US7052705B2, “Anti-angiogenic peptides” (Regeneron Pharmaceuticals, Inc., priority 2001, dated 2006).
Where “and” joins values, the source holds several entries; their conditions need not be identical. Equal entries are not always repeated. Where two headings read alike, the source gives them in different places. Ends that are not written are not given here.

Key:
[1] = molecular target: T1, VEGFR-2 (Homo sapiens, UniProt P35968); type: binding
T1 construct: In the COS-1 cells overexpressing the full-length VEGFR-2; expressed in transfected cells; host or cells: COS-1
T1 sequence (P35968 20-1356): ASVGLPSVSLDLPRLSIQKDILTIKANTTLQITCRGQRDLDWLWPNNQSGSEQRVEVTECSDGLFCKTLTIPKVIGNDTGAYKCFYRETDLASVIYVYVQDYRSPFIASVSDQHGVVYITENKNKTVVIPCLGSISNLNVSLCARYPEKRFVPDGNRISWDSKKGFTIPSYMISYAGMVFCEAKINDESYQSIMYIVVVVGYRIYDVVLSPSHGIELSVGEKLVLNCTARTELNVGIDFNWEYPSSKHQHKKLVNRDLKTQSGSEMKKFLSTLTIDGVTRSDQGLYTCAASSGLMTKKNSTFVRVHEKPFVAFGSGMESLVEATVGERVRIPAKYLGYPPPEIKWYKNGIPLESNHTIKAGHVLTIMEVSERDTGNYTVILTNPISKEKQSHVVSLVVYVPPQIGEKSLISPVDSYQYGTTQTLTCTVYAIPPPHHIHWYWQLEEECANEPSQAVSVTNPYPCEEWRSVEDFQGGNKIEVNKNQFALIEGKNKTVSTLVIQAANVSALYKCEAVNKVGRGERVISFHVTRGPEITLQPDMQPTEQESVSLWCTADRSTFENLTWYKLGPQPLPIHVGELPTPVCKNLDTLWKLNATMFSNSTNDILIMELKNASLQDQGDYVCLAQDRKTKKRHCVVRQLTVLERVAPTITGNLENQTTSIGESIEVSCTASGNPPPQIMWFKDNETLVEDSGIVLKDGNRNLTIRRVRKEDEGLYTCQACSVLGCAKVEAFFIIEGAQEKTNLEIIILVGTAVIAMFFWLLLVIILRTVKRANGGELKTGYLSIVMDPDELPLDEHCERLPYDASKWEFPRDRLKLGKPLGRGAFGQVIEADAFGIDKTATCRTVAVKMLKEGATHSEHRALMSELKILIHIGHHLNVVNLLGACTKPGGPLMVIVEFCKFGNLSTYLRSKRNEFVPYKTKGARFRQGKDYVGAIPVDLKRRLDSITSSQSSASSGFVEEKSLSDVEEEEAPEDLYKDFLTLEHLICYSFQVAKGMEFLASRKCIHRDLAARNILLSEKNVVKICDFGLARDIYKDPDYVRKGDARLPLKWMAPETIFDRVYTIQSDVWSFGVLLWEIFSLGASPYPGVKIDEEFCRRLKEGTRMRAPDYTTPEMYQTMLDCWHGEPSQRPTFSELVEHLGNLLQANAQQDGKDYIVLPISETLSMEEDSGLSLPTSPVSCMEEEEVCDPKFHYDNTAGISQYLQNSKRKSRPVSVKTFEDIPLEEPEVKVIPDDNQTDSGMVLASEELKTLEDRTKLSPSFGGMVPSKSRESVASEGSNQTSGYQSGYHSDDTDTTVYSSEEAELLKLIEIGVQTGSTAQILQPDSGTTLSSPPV
Description: (§1) When co-expressing VEGFR-2 and NP-1, 5 μg of VEGFR-2 cDNA and 2 μg of NP-1 cDNA are used. When the receptors are expressed in isolation, for VEGFR-2, 5 μg of VEGFR-2 cDNA and 2 μg of mock vector cDNA are used.
(§2) After generation of the liposome/DNA solution, the cells are rinsed one time with 5 ml Optimem I, then replaced with another 5 ml of Optimem I containing the liposome/DNA solution. The cells are incubated for two to four hours at 37° C., 5% CO2, then 5 ml of COS-1 cell growth medium is applied and the transfection is allowed to proceed overnight. The following day, cells are trypsinized (0.2% trypsin, 1 mM EDTA, Gibco-BRL), and cells containing common transfectants are pooled. […] The cells are then used for corresponding VEGFR-2/NP-1 complex formation and peptide blocking studies.
Cells are plated the day before experimentation at 200,000 cells per well in twelve well tissue culture plates (VWR) in 1 ml of growth medium specific for each cell type. […]
(§3) Unbound ligand is then removed by quickly washing three times with 5 ml ice cold BSA-free binding buffer (MEM, Gibco, 25 mM Hepes, Gibco). Cells are lysed by the addition of 250 μl of RIPS Buffer (previously described), and the lysed cells are transferred to 12×75 mm test tubes and counted using a gamma counter. […]

[2] = molecular target: T2, NP-1 (Homo sapiens, UniProt O14786); type: binding; design: the NP-1 cDNA used for these experiments would only produce the full-length receptor; expressed in transfected cells; host or cells: COS-1
T2 sequence (O14786 22-923): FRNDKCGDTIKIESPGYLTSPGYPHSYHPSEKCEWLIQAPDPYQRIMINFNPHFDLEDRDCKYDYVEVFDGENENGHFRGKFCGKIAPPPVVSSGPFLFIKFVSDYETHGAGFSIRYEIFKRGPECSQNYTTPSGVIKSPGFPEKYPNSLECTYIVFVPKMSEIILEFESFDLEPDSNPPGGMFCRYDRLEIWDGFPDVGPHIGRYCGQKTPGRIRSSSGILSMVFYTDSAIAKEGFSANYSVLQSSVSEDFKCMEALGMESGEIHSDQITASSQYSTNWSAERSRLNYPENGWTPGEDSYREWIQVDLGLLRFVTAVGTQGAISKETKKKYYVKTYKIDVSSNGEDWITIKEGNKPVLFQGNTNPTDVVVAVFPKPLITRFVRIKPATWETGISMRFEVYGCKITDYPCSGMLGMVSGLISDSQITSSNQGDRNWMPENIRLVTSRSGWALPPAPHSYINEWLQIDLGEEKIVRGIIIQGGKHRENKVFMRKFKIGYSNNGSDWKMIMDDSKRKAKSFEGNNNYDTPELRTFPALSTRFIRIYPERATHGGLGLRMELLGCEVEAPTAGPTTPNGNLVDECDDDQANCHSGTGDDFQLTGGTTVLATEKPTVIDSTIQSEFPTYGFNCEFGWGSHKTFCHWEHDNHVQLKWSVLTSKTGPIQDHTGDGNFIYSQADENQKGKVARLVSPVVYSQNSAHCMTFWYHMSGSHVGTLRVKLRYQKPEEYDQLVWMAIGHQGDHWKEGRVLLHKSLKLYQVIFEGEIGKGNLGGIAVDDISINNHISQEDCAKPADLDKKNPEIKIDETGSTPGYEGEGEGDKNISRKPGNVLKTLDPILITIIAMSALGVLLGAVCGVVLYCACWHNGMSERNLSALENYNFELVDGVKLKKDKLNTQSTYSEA
Description: as §1, §2
(§4) Cells are plated the day before experimentation at 200,000 cells per well in twelve well tissue culture plates (VWR) in 1 ml of growth medium specific for each cell type. On the day of experimentation, the cells were pre-equilibrated at 4° C. for 30 to 60 minutes in binding buffer (0.2% BSA, Sigma; 25 mM Hepes, Gibco; MEM, Gibco). […] The binding reaction is allowed to reach equilibrium for four hours at 4° C. with gentle agitation.
(§5) Unbound ligand is then removed by quickly washing three times with 5 ml ice cold BSA-free binding buffer (MEM, Gibco, 25 mM Hepes, Gibco). Cells are lysed by the addition of 250 μl of RIPS Buffer (previously described), and the lysed cells are transferred to 12×75 mm test tubes and counted using a gamma counter. Generation of competition curves and IC50 values are performed using the Prism software package (Graphpad Software Inc., San Diego, Calif.).

[3] = system: T3, VEGFR-2/NP-1; type: binding, human
T3 construct: In the COS-1 cells overexpressing the full-length VEGFR-2; the NP-1 cDNA used for these experiments would only produce the full-length receptor; expressed in transfected cells; host or cells: COS-1
Description: as §1, §2, §4, §5

[4] = molecular target: T2, NP-1; test: Whole cell binding assay: competition for 125I-VEGF165 in stable Balb/C 3T3 A31 cells overexpressing NP-1; conditions: for IC50: Balb/C 3T3 A31 cells, competition for 125I-VEGF165; for Relative affinity (IC50 peptide / IC50 VEGF165), NP-1: Stable Balb/c cells
Description: (§6) Balb/C 3T3 A31 VEGFR-2, NP-1, and VEGFR-2/NP1 stable cells are created using the Nolan Lab Phoenix Retroviral system, previously described.
(§7) Virus containing the hNP-1 gene is generated according to the procedure outlined previously using the QMXE cells.
(§8) Clonal cell lines are obtained by subjecting the NP-1 infected cells to neomycin selection using Balb/C growth medium containing 1.5–2.0 mg/ml G418 (Gibco-BRL) for two weeks. Single colonies are obtained and clones are subjected to Western blot analysis to confirm stable expression of NP-1.
as §4, §5

[5] = system: VEGFR-2/NP-1; test: Whole cell binding assay: competition for 125I-VEGF165 in stable Balb/C 3T3 A31 cells overexpressing VEGFR-2 and NP-1; design: species or system human
Description: as §6, §7, §8, §4, §3

[6] = system: Balb/c cells (Mock, endogenous NP-1); test: Saturation analysis of 125I-VEGF165 binding, Balb/c Mock (pGBMGH); conditions: Balb/c stable
Source text: Pools of infected Balb/C 3T3 A31 cells expressing hVEGFR-2 or GFP alone (Mock) are selected two times by FACS sorting using the hVEGFR-2 specific monoclonal antibody J5F4A2 (Procter & Gamble Pharmaceuticals as described in J. Biol. Chem. 276(27):25520–25531 (2001), which is expressly incorporated by reference herein in its entirety, for the VEGFR-2 cells, or by GFP emission for the Mock cells. Clonal populations of VEGFR-2 are generated by subjecting the FACS sorted VEGFR-2 cell pool to limiting dilution. A clonal hVEGFR-2 cell line termed D7R2 is selected for experimental studies based on its high levels of hVEGFR-2 expression by Western blot analysis. The pool of the Mock GFP expressing cells, hereinafter referred to as pGBMGH, is not subjected to limiting dilutions and thus is not a clonal population.
as §3
This possibility was evaluated by determining equilibrium binding Kd values in cells expressing VEGFR-2 alone, NP-1 alone, and cells co-expressing both receptors, using standard saturation analysis techniques as known to one skilled in the art. […]

[7] = system: COS-1 cells (Mock); test: Saturation analysis of 125I-VEGF165 binding, COS-1 Mock; conditions: COS-1 transient
Source text: To perform hNeuropilin-1 (hNP-1) and hVEGFR-2 complex formation and peptide blocking experiments, the hVEGFR-2 and hNP-1 cDNAs are cloned into the pJFE14 mammalian expression plasmid (Regeneron Pharmaceuticals) containing the SRα promoter. COS-1 cells are transiently transfected with pJFE14 (Regeneron Pharmaceuticals), hVEGFR-2 (Regeneron Pharmaceuticals), or hNP-1 (Procter & Gamble Pharmaceuticals) expression plasmids using the Lipofectamine-2000 system (Gibco-BRL). […] When co-expressing VEGFR-2 and NP-1, 5 μg of VEGFR-2 cDNA and 2 μg of NP-1 cDNA are used. When the receptors are expressed in isolation, for VEGFR-2, 5 μg of VEGFR-2 cDNA and 2 μg of mock vector cDNA are used.
as §5, with “Calif.). […]” for “Calif.).”
This possibility was evaluated by determining equilibrium binding Kd values in cells expressing VEGFR-2 alone, NP-1 alone, and cells co-expressing both receptors, using standard saturation analysis techniques as known to one skilled in the art.

[8] = system: VEGF165 vascular growth response; test: Mouse corneal pocket model; type: in vivo; design: key to Score #1 (subjective neovascular response score) / Score #2 (subjective neovascular response score) / Score #3 (subjective neovascular response score): subjective neovascular growth score, 0 to 6 scale; conditions: per animal, scale 0 to 6, pellet P6V8 4 μg and/or VEGF165 300 ng
Description: A 0.2 μl aliquot of this solution yielded a 4 μg dose. Human recombinant VEGF165 was purchased from R&D Systems (Minneapolis, Minn.), supplied in a lyophilized, carrier free form and reconstituted in the same water as the above peptide. A 0.2 μl aliquot of this solution yielded a 300 ng dose.
Male albino mice (Crl: CD-I (ICR) BR, VAF) from Charles River (Portage, N.C.), 20–24 grams were used. […] Compound adsorbed pellets were fabricated and implanted as described below. The treated eye was imaged on the day of implantation (day 0) and on days 4 and 7 following surgery. The growth response was subjectively graded on a scale from 0 to 6 by three independent graders blinded from the treatment grouping labels using the 3× printed image.
Polyvinyl alcohol (PVA) matrix material (Rippey, El Dorado Hills, Calif.) was cut into 1 cm×3 cm pieces and placed in a vibratome for sectioning on edge to produce 300 μm thick strips. The strips were individually sterilized by exposure to ethylene oxide. A strip was then cut under a dissecting microscope into approximately 300 μm cubes. The desired concentration of test compound or vehicle was adsorbed, sometimes utilizing a micro dessicant chamber. An HP auto sampler micro-syringe (Hamilton, P/N 7000.5) controlled the exact volume of the agent adsorbed onto the sponge. The sponge was then placed on a microscope slide prepared with a coating (20 μl spread over a 0.75 mm×1.5 mm area) of 12% hydron (Sigma, St. Louis, Mo.). The slide was protected in a clean petri dish and placed into a dessicator at 4° C. for a few hours or overnight. The dry, adsorbed sponges were mechanically flattened and overlaid with another aliquot of 12% hydron and again placed into a dessicator to cure the hydron coating. Fabrication of the adsorbed PVA sponge-hydron sandwich (referred to as a pellet) was done no more than 48 hours prior to implantation and the pellets were stored at 4° C. On the day of surgery and just prior to implantation, the pellet was trimmed so that the sponge remained encased by hydron (approximately 400 μm×400 μm×50 μm) and could be carefully removed from the slide.
Mice were anesthetized with 0.05 cc of Ketamine (140 mg/kg) and 0.03 cc Xylazine (17 mg/kg). A surgical plane of anesthesia was maintained by subsequent administration of half doses of the above compounds as needed. The whiskers on the animal's right side were trimmed down to ¼ of an inch. The right eye was bathed in an ophthalmic local anesthetic solution (Ophthaine, 0.5% tetracine hydrochloride) initially and throughout the procedure. The animal was placed on its side and the skin around the eye was gently retracted to expose the lateral and apical aspects of the cornea. The lateral limbic artery bifurcation was positioned horizontally. While stabilizing the eye against the ocular orbit, a vertical incision was made using a micro scalpel into the corneal tissue just lateral to the pupil. Care was taken to prevent accidental perforation of the anterior eye chamber. The incision depth was carefully deepened until a delicate and small lateral stab could be made (on axis with the lateral limbic artery bifurcation) with the micro scalpel into the middle of the corneal stroma. This lateral, intrastromal incision was enlarged by blunt dissection with very fine forceps until a pocket was formed from the vertical incision toward the limbus.
A hydron coated PVA sponge with adsorbed test compound (pellet) was prepared for implantation by carefully excising and removing it from the microscope slide. The pellet was introduced gently into the corneal pocket and advanced to within 1–2 mm of the limbus. The edges of the vertical corneal incision were approximated to encourage rapid healing. The imaging procedure (described below) was used to document the native limbic vascular architecture at the time of implantation. Post surgical recovery of the animal consisted of triple antibiotic ophthalmic ointment to prevent corneal drying, abrasion and infection. […]

| Substance | Relative Affinity to Lead Peptide (RALP), VEGFR-2 [1] | Relative Affinity to Lead Peptide (RALP), NP-1 [2] | Relative Affinity to Lead Peptide (RALP), VEGFR-2/NP-1 [3] | IC50 [4] | Relative affinity (IC50 peptide / IC50 VEGF165), NP-1 [4] | Relative affinity (IC50 peptide / IC50 VEGF165), VEGFR-2/NP-1 [5] | also measured |
| --- | --- | --- | --- | --- | --- | --- | --- |
| H-RRPKGRGKRRREKQRAAAKPRR-OH [AS-4A] | 1.9 | 2.1 | 0.78 | – | – | – | – |
| H-RRPKGRGKRAAAKQRPSDKPRR-OH [AS-3, RRP KGR GKR AAA KQR PSD KPR R] | 4 | 0.55 | – | – | – | – | Relative Affinity to Lead Peptide (RALP), VEGFR-2/NP-1 ([3]; AS series, lead peptide P6V8CS, COS-1, NC = no competition): complete loss of binding |
| RRPKGRGKRRREAAAPSDKPRR [AS-4] | – | 0.45 | 4.2 | 17.8 nM | 112 | 3,856 | selectivity for cells expressing NP-1 alone versus cells co-expressing VEGFR-2 and NP-1 ([2]; COS-1): about 100 fold |
| VEGF165: human recombinant VEGF165 (R&D Systems), vascular endothelial growth factor isoform 165 | – | – | – | – | – | – | Kd [6]: 0.222 nM; Log Kd ± SEM [6]: −9.65 ± 0.13; Kd [7]: 1.11 nM; Log Kd ± SEM [7]: −8.95 ± 0.31; Score #1 (subjective neovascular response score) ([8]; grader 1): 2 (2×) and 3 (3×) and 4 (2×) and 5; Score #2 (subjective neovascular response score) ([8]; grader 2): 2 (3×) and 4 (4×) and 5; Score #3 (subjective neovascular response score) ([8]; grader 3): 2 (3×) and 3 (2×) and 4 and 5 (2×) |
| KGRGKRRREKQRPCDKPRR [Peptide P6V8-3N, KGR GKR RRE KQR P CDK PRR] | – | – | – | 254 nM | 1,607 | 6,928 | – |
